From US4374840A, “Certain phenyl or pyridyl-propanol-amines containing alkyl-nitrate moieties” (Kowa Company, Ltd., priority 1980, dated 1983)

Legend:
[1] = Test [I]: heart rate in pentobarbital-anesthetized dogs, i.v.; format: in vivo; conditions: Canis lupus familiaris, iv; anesthetized adult dogs, 20 μg/kg i.v.; read-out: Reduction in heart rate
Description: (§1) Adult dogs were anesthetized by intravenous administration of 30 mg/kg of pentobarbital, and examined under artificial respiration for the action of the compound of this invention on blood pressure and heart rate.
Measured by pulse pressure changes.
(§2) Dose and Method of Administration:
(§3) The test drug was dissolved in 0.1 N hydrochloric acid, and administered intravenously in a dose of 20 μg/kg.
(§4) The numbered compounds in the following tables correspond to the compounds obtained in the correspondingly numbered Examples given hereinbelow.

[2] = Test [I]: blood pressure in pentobarbital-anesthetized dogs, i.v.; format: in vivo; parameters: key to duration of hypotensive action (mark (*): especially longlasting): +: a reduction of less than 20%; ++: a reduction of 20 to 50%; +++: a reduction of more than 50%; (*): The hypotensive action is especially longlasting; conditions: anesthetized adult dogs, 20 μg/kg i.v.; for inhibition in vivo at 0.02 mg/kg: Canis lupus familiaris, iv, read-out: Reduction in blood pressure
Description: as §1
A catheter was inserted into the femoral artery, and connected to a pressure transducer for measurement of the blood pressure.
as §2, §3, §4

[3] = Test [III]: common carotid blood flow in anesthetized dogs; format: in vivo; conditions: anesthetized mongrel dogs, 20 μg/kg i.v.
Description: (§5) Mongrel dogs were anesthetized by intravenous administration of 30 mg/kg of pentobarbital, and examined under artifical respiration for the following items.
(3) Common carotid blood flow
Measured by setting an electromagnetic flow probe at the common carotid artery.
as §2
(§6) Each of the compounds shown in Tables 2 to 4 was dissolved in 0.1 N hydrochloric acid, and intravenously administered in a dose of 20 μg/kg.

[4] = system: isolated atrial muscle of a guinea pig; test: Test [II]: antagonistic action against isoproterenol on isolated atrial muscle (β-blocking action); conditions: 10^-9 to 4×10^-4 mole, control drug propranolol hydrochloride
Description: The isolated atrial muscle of a guinea pig was used, and its contractile force and heart rate were recorded. Thus, the antagonistic action of the test drug against isoproterenol was examined. The drug was used in a concentration of 10^-9 to 4×10^-4 mole. As a control drug, propranolol hydrochloride was used.

[5] = Test [III]: left ventricular end diastolic pressure (LVEDP) in anesthetized dogs; format: in vivo; conditions: anesthetized mongrel dogs, 20 μg/kg i.v.
Description: as §5
(1) Left ventricular end diastolic pressure (LVEDP)
Measured by advancing a catheter transducer to the left ventricle.
as §2, §6

[6] = Test [III]: coronary blood flow in anesthetized dogs; format: in vivo; conditions: anesthetized mongrel dogs, 20 μg/kg i.v.
Description: as §5
Measured by setting an electro magnetic flow meter probe in the left circumflex branch.
as §2, §6

Compound | inhibition in vivo at 0.02 mg/kg [1] | inhibition in vivo at 0.02 mg/kg [2] | antagonistic action against isoproterenol, compared with propranolol hydrochloride [4] | Decrease rate (%) in LVEDP [5] | Increase rate (%) in coronary flow [6] | other results
CC(C)NCC(O)COc1ccc(CCCO[N+](=O)[O-])cc1 (stereo not shown) [Compound 61, 1-iso-Propylamino-3-[4-(3-nitratopropyl)phenoxy]-2-propanol] | > 50% | > 50% |  |  |  | Increase rate (%) in flow in the common carotid artery [3]: .uparw. (an increase of 30% or less)
CC(CCc1ccccc1)NCC(O)c1ccccc1OCCO[N+](=O)[O-] (stereo not shown) [Compound 14, 1-[2-(2-Nitratoethoxy)phenyl]-2-(1-methyl-3-phenylpropyl)aminoethanol] |  |  | same degree of action as the control drug |  |  | 
C=CCOc1cc(OCCO[N+](=O)[O-])ccc1OCC(O)CNC(C)C (stereo not shown) [Compound 23, 1-iso-Propylamino-3-[2-allyloxy-4-(2-nitratoethoxy)phenoxy]-2-propanol] | > 50% | 20 to 50% |  | .dwnarw..dwnarw. (a decrease of 20 to 40%) |  | 
CC(C)NCC(O)COc1ccc(CCCCO[N+](=O)[O-])cc1 (stereo not shown) [Compound 62, 1-iso-Propylamino-3-[4-(4-nitratobutyl)phenoxy]-2-propanol] | 20 to 50% | > 50% |  | .dwnarw. (a decrease of less than 20%) |  | 
C=CCOc1cc(OCCO[N+](=O)[O-])c(Cl)cc1OCC(O)CNC(C)C (stereo not shown) [Compound 33, 1-iso-Propylamino-3-[2-allyloxy-5-chloro-4-(2-nitratoethoxy)phenoxy]-2-propanol] | 20 to 50% | 20 to 50% |  | .dwnarw. (a decrease of less than 20%) | .uparw. (an increase of 30% or less) | duration of hypotensive action (mark (*): especially longlasting) [2]: (*); Increase rate (%) in flow in the common carotid artery [3]: .uparw. (an increase of 30% or less)
CC(C)NCC(O)COc1ccc(OCCO[N+](=O)[O-])c(Cl)c1 (stereo not shown) [Compound 34, 1-iso-Propylamino-3-[3-chloro-4-(2-nitratoethoxy)phenoxy]-2-propanol] |  |  |  |  | .uparw. (an increase of 30% or less) | Increase rate (%) in flow in the common carotid artery [3]: .uparw. (an increase of 30% or less)
COc1ccc(C(O)CNC(C)CCc2ccccc2)cc1OCCO[N+](=O)[O-] (stereo not shown) [Compound 4, 1-[4-methoxy-3-(2-nitratoethoxy)phenyl]-2-(1-methyl-3-phenylpropyl)aminoethanol] |  |  | same degree of action as the control drug |  |  | 
COc1ccc(OCCO[N+](=O)[O-])cc1OCC(O)CNC(C)C (stereo not shown) [Compound 13, 1-iso-Propylamino-3-[2-methoxy-5-(2-nitratoethoxy)phenoxy]-2-propanol] |  |  | same degree of action as the control drug |  |  | 
CC(C)NCC(O)COc1c(OCCO[N+](=O)[O-])cccc1OCCO[N+](=O)[O-] (stereo not shown) [Compound 63, 1-iso-Propylamino-3-[2,6-di(2-nitratoethoxy)phenoxy]-2-propanol] | > 50% | > 50% |  |  |  | 
COc1cc(OCCO[N+](=O)[O-])ccc1OCC(O)CNC(C)C (stereo not shown) [Compound 17, 1-iso-Propylamino-3-[2-methoxy-4-(2-nitratoethoxy)phenoxy]-2-propanol] |  |  | same degree of action as the control drug |  |  | 
CCC(CC)NCC(O)COc1cccc(OCCCO[N+](=O)[O-])c1 (stereo not shown) [Compound 26, 1-(1-Ethylpropyl)amino-3-[3-(3-nitratopropoxy)phenoxy]-2-propanol] |  |  |  |  | .uparw. (an increase of 30% or less) | Increase rate (%) in flow in the common carotid artery [3]: .uparw. (an increase of 30% or less)
CC(C)NCC(O)COc1ccc(OCCCO[N+](=O)[O-])cc1 (stereo not shown) [Compound 7, 1-iso-Propylamino-3-[4-(3-nitratopropoxy)phenoxy]-2-propanol] | > 50% | 20 to 50% |  | .dwnarw..dwnarw..dwnarw. (a decrease of more than 40%) | .uparw..uparw. (an increase of more than 30%) | Increase rate (%) in flow in the common carotid artery [3]: .uparw..uparw. (an increase of more than 30%)
CC(C)NCC(O)COc1ccc(OCCO[N+](=O)[O-])cc1 (stereo not shown) [Compound 6, 1-iso-Propylamino-3-[4-(2-nitratoethoxy)phenoxy]-2-propanol] | > 50% | > 50% |  | .dwnarw..dwnarw. (a decrease of 20 to 40%) | .uparw..uparw. (an increase of more than 30%) | duration of hypotensive action (mark (*): especially longlasting) [2]: (*); Increase rate (%) in flow in the common carotid artery [3]: .uparw..uparw. (an increase of more than 30%)
CC(C)NCC(O)COc1ccc(OCCO[N+](=O)[O-])c(C(N)=O)c1 (stereo not shown) [Compound 55, 1-iso-Propylamino-3-[3-carbamoyl-4-(2-nitratoethoxy)phenoxy]-2-propanol] | > 50% | 20 to 50% |  |  |  | 
CC(C)NCC(O)COc1cccc(OCCO[N+](=O)[O-])c1 (stereo not shown) [Compound 1, 1-iso-Propylamino-3-[3-(2-nitratoethoxy)phenoxy]-2-propanol] |  |  |  | .dwnarw..dwnarw..dwnarw. (a decrease of more than 40%) |  | 
CC(C)NCC(O)COc1ccccc1OCCCCCCO[N+](=O)[O-] (stereo not shown) [Compound 32, 1-iso-Propylamino-3-[2-(6-nitratohexyloxy)phenoxy]-2-propanol] |  |  |  |  | .uparw. (an increase of 30% or less) | 
CC(C)NCC(O)COc1cccc(OCCO[N+](=O)[O-])n1 (stereo not shown) [Compound 15, 1-iso-Propylamino-3-[6-(2-nitratoethoxy)-2-pyridyloxy]-2-propanol] |  |  | same degree of action as the control drug |  |  | 
COc1ccc(OCC(O)CNC(C)C)cc1OCCO[N+](=O)[O-] (stereo not shown) [Compound 3, 1-iso-Propylamino-3-[[4-methoxy-3-(2-nitratoethoxy)]phenoxy]-2-propanol] |  |  | same degree of action as the control drug |  |  | 
CC(C)NCC(O)COc1ccc(OCCO[N+](=O)[O-])cc1OCCO[N+](=O)[O-] (stereo not shown) [Compound 50, 1-iso-Propylamino-3-[2,4-di-(2-nitratoethoxy)phenoxy]-2-propanol] | > 50% | > 50% |  | .dwnarw..dwnarw. (a decrease of 20 to 40%) |  | 
CC(C)NCC(O)COc1ccccc1OCCCO[N+](=O)[O-] (stereo not shown) [Compound 8, 1-iso-Propylamino-3-[2-(3-nitratopropoxy)phenoxy]-2-propanol] |  |  | same degree of action as the control drug |  |  | 
CC(C)NCC(O)COc1ccccc1OCCO[N+](=O)[O-] (stereo not shown) [Compound 2, 1-iso-Propylamino-3-[2-(2-nitrotoethoxy)phenoxy]-2-propanol] | 20 to 50% | 20 to 50% |  |  | .uparw..uparw. (an increase of more than 30%) | 
